According to ChEMBL document CHEMBL5120791, “Triterpenes from Pholiota populnea as Cytotoxic Agents and Chemosensitizers to Overcome Multidrug Resistance of Cancer Cells” (J Nat Prod, 2022):

Legend:
[1] = system: COLO 205; assay: Cytotoxicity against human COLO 205 cells assessed as reduction in cell viability measured after 24 hrs by MTT assay; assay type: functional, cell-based; details: COLO 205, 24 h
[2] = system: COLO 320; assay: Cytotoxicity against human COLO 320 cells assessed as reduction in cell viability measured after 24 hrs by MTT assay; assay type: functional, cell-based; details: COLO 320, 24 h
[3] = biological target: ATP-dependent translocase ABCB1 (Homo sapiens, UniProt P08183); assay: Inhibition of P-gp in human COLO 320 cells assessed as potentiation of doxorubicin-induced cytotoxicity by measuring combination index measured after 72 hrs by checkerboard assay; assay type: cell-based; details: colo 320, 72 h
Sequence of ATP-dependent translocase ABCB1 (P08183 whole entry): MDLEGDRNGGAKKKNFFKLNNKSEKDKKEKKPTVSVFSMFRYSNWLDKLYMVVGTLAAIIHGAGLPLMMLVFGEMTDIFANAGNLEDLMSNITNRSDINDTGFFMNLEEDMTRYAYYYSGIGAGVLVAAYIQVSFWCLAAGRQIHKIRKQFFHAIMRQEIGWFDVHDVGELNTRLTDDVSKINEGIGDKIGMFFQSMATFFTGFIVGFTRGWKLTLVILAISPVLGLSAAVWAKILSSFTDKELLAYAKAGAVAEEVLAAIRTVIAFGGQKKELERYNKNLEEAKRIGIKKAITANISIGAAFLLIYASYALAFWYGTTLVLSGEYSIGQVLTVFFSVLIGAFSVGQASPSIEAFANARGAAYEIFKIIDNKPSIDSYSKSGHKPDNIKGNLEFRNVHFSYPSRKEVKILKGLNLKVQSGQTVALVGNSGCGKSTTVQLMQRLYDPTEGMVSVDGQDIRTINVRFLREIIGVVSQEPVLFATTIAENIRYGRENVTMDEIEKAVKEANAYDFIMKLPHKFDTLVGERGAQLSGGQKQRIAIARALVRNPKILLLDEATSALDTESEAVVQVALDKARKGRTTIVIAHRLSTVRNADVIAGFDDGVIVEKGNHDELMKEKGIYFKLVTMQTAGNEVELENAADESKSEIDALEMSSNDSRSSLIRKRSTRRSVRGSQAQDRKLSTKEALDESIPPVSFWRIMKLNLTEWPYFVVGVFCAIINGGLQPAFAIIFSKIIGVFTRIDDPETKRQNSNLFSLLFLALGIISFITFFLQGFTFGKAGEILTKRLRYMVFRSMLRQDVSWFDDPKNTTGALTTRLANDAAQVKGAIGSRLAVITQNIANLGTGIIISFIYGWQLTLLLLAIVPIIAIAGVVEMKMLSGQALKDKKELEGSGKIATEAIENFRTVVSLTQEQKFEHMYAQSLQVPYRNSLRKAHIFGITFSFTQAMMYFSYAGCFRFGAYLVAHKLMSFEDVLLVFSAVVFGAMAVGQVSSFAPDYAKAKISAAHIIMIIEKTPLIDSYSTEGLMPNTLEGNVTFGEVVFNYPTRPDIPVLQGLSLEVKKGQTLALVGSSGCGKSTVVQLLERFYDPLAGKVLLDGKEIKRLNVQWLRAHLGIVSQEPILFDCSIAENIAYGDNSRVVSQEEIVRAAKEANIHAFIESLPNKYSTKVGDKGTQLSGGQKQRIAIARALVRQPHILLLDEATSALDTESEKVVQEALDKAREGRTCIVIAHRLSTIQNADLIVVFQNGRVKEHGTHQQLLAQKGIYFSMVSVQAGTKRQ

SMILES: CC(C)[C@@H](C)/C=C/[C@@H](C)[C@H]1CC[C@H]2C3=CC[C@H]4CC(=O)CC[C@]4(C)[C@H]3CC[C@]12C
- IC50 [1]: 11.6 µM
- IC50 [2]: 8.4 µM
- CI50 [3]: 0.521
